This is an account of results in a melting point compilation (Tetko et al.; mined from patent text by program, amines drawn as free bases though some values may be those of a salt).

The structures appear in SMILES notation.

`N#Cc1c(N2CCN(C(=O)c3cccs3)CC2)c2cc(F)ccc2n(Cc2ccccc2)c1=O`: the melting point was 246 °C.
`CCN(CC)c1ccc2c(c1)Oc1cc(N(Cc3ccccc3)C(C)=O)c3ccccc3c1N2C(C)=O` yielded a melting point of 202 to 204 °C.
`CCCc1cc(C(=O)O)n(C)n1` displayed a melting point of 150 to 154 °C.
`Cn1cncc1C(O)(c1ccc(F)cc1)c1ccc2c(c1)C(c1cccc(Cl)c1)Nc1nnnn1-2` (centres undefined) had a melting point of 121 °C.
Regarding `CC(C)(Cc1ccc(Br)cc1)C(C(=O)O)C(=O)O`, the melting point fell in the range of 169 to 173 °C.
With `CC(=O)Nc1ccc(NC2CCN3CCc4ccccc4C3C2)cc1` (centres undefined), the melting point lay within 210 to 213 °C.
As for `O=c1[nH]c2c(I)c([N+](=O)[O-])c(Cl)c([N+](=O)[O-])c2[nH]c1=O`, the melting point is 240 to 242 °C.
For the compound `COc1ccc(S(=O)(=O)C(C)(Cc2ccccc2)C(=O)NO)cc1` (centres undefined), the melting point was 58 °C.
Next, `COCCOc1cc2ncnc(NC3=CC(=O)C(Oc4ccc(-n5ccnc5)cc4)=CC3=O)c2cc1OCCOC`: 109 to 115 °C.
`CCC(CC)c1nn(-c2ccc(C(F)(F)F)nn2)cc1CCCOc1c(C)cccc1CC(=O)O` showed a melting point of 76 to 77 °C.
Next, `Cc1ccc([N+](=O)[O-])cc1Nc1nccc(-c2cccnn2)n1`: 275 to 277 °C.
With `c1ccc(CN2CCC3(CC2)SCCS3)cc1` the figure was 51 to 53 °C.
For `COc1ccc(C(=O)Nc2ccc(F)c(F)c2)cc1NS(=O)(=O)c1ccc(C#N)cc1`, the melting point lay within 228 to 230 °C.
`Cc1cc(-c2ccc(Cl)cc2)nc2c(C#Cc3ccc(C(C)(C)O)cc3)cnn12` had a melting point of 112 to 115 °C.
In turn, `Cn1cc(C(=O)NCc2ccc(Cl)cc2)c(=O)c2cc(CN3CCC[C@@H]3[C@@H](O)c3ccccc3)sc21` (relative stereo) yielded a melting point of 158 to 162 °C.
Compound `Nc1nc(NC(=O)c2cccnc2)nc(-c2ccc3ccccc3c2O)n1` returned a melting point of 301 to 302 °C.
With `Cc1cccc2c1N=C(Cl)c1cscc1O2` the figure was 160 to 161 °C; with `Clc1cccc(N2CCN(c3nc4cccccc-4n3)CC2)c1`, 217 to 219 °C.
`O=[N+]([O-])c1ccc(OCc2ccc(Cl)cc2)cc1F` yielded a melting point of 86 to 88 °C.
With `COc1cc(OC)nc(SCc2nc(C(F)(F)F)ccc2C(=O)O)n1` the figure was 123 to 124 °C; with `O=[N+]([O-])c1cnccc1NCCCCO`, 80 to 82 °C.
In turn, `O=C1NC(=O)C(S(=O)c2ccc3ccccc3c2)S1` (centres undefined) showed a melting point of 157 to 158 °C.
For `CCN1C(=O)C(C)(C)C(=O)N(C)c2cc(CN(CCn3ccc4oc(C)cc4c3=O)CCn3ccc4oc(C)cc4c3=O)ccc21`, the melting point lay in the range of 160 to 165 °C.
The compound `COc1ccccc1[C@@]1(O)[C@H](O)CC(c2ccccc2)(c2ccccc2)[C@@H]2CN(C(=O)Cc3ccc4ccccc4c3)C[C@@H]21` (racemic) had a melting point of 188 to 190 °C.
`Cc1nc(-c2cccc(C(=O)O)c2)nn1-c1cccc(F)c1` showed a melting point of 236 to 238 °C.
`CC(O)C1CCC2C3C=CC4=CC(=O)C5OC5C4(C)C3CCC12C` (centres undefined) returned a melting point of 206 to 207 °C.
`COc1ccc2sc(SCc3c(F)c(F)c(F)c(F)c3F)nc2c1` had a melting point of 71 to 75 °C.
As for `OOC1(OO)C2CC3CC(C2)CC1C3`, the melting point fell in the range of 144 to 145 °C.
Next, `COc1ccc(-c2ccc(C(=O)O)cc2)cc1F`: 253 °C; `CCN(CC)C(=O)NC1CC2c3cccc4[nH]c(C#Cc5cccs5)c(c34)CC2N(C)C1` (centres undefined): 252 to 256 °C.
`O=C1Nc2c(F)cc(F)cc2C1c1ncnc2nn(C3CCCC3)cc12` (centres undefined) registered a melting point of 296 to 297 °C.
Next, `COc1ccc2c(n1)c(CC[N+](=O)[O-])c1n2Cc2ccccc2-1`: 127 to 128 °C.
For `CS(=O)(=O)c1ccc(-n2nc(C(F)(F)F)cc2-c2ccc(-c3cnco3)cc2)cc1`, the melting point was 178 to 180 °C.
On to `CNS(=O)(=O)c1ccsc1C(=O)OC`, for which the melting point fell in the range of 115 to 122 °C.
On to `CCCC(C(=O)O)C1(c2ccccc2)CC(O)=C(Sc2ccccc2C(C)C)C(=O)O1` (centres undefined), for which the melting point fell in the range of 145 to 146 °C.
Next, `Cc1ccccc1NC(=O)Nc1ccc(CNC(=O)OC(C)(C)C)cc1`: 200 to 202 °C; `O=C(Nc1ccc(-n2nc(C(F)(F)F)cc2C(F)(F)F)cc1)c1c(F)cccc1F`: 127 to 128 °C; `CCCCOC(=O)C=CCOc1ccc(F)c(C(N)=O)c1F`: under 40 °C.
The compound `CC(C)CNC1=NS(=O)(=O)c2sc(Cl)cc2N1` returned a melting point of 262 to 264 °C.
With `CC(C)(C)c1c[nH]c(S)n1` the figure was 232 to 234 °C; with `O=C1Nc2c(F)cc(F)cc2C1c1ncnc2c1cnn2C1CCCC1` (centres undefined), over 300 °C.
In turn, `Cc1onc(-c2ccccc2)c1-c1ccc(S(=O)(=O)NC(=O)CN)cc1` yielded a melting point of 231 to 235 °C.
Regarding `CCOC(=O)C(Oc1cc(-c2ccccc2)on1)C(=O)OCC`, the melting point was in the range of 62 to 64 °C.
For the compound `COc1cc(NC2=C(Cl)C(=O)c3ccccc3C2=O)ccc1S(=O)(=O)Nc1ccccc1C`, the melting point was 197 to 200 °C.
With `CC(C)OC(=O)c1cc(Cl)c(Cl)c(-c2ccccc2)n1`, the melting point was 94 to 96 °C.
Regarding `CNC(=O)N(C)C(=O)Nc1ccccn1`, the melting point fell in the range of 112 to 115 °C.
On to `Cc1ccc(OCC(=O)O)c(I)n1`, for which the melting point was 170 to 172 °C.
`CCOC(=O)c1cn(CC)c2c(F)c(F)c(F)c(C)c2c1=O` showed a melting point of 197 to 198 °C.
`CCOCc1nc2c(N)nc3cc(-c4cccnc4)ccc3c2n1CC(O)CO` (centres undefined) registered a melting point of 202 to 204 °C.
The compound `Cc1ccc(NS(=O)(=O)c2ccc(N)cc2)cc1` returned a melting point of 174 to 176 °C.
`CN(C)C(=O)n1cc(C(=O)C2CSC(c3cccnc3)N2)c2ccc(-c3ccccc3)cc21` (centres undefined) displayed a melting point of 91 to 97 °C.
With `Cc1cc(C)c(C(=O)c2ccccc2)c(OCC(O)CNC(C)C)c1C` (centres undefined) the figure was 121 to 123 °C; with `CS(=O)(=O)c1ccc(-c2cnn(-c3ccc(F)c(F)c3)c(=O)c2Cc2ccc(F)c(F)c2)cc1`, 177 to 179 °C; with `O=CN1CC(CCN2CC=C(c3c[nH]c4cc(Cl)ccc34)CC2)c2ccccc21` (centres undefined), 183 to 185 °C.
Next, `CCOC(=O)C(C(=O)OCC)[C@@H](c1ccccc1)c1c[nH]c2cccc(OC)c12`: 134 to 136 °C; `FC(F)(F)c1cc(Sc2ccc(Cl)cc2)c(-c2ccc(Cl)cc2)[nH]1`: 39 to 54 °C.
On to `Oc1ccc(-c2cc3cc(Cl)cc(Cl)c3o2)cc1`, for which the melting point lay within 184 to 186 °C.
Compound `CC(C)(C)OC(=O)NCC(=O)Oc1cc(Cl)c(Cl)cc1Cl` came in with a melting point of 100 to 103 °C.
With `CCCOc1nsc(N=CN(C)C)c1C#N`, the melting point fell in the range of 117 to 118 °C.
Compound `Cc1ccc2occ(C3CCN(CCc4cc5c(s4)CCCC(=O)N5)CC3)c2c1` yielded a melting point of 156 to 158 °C.
For `COC(CNC(=O)c1ccc(C(=O)N2CCN(c3ncccc3NC(C)C)CC2)nc1)OC`, the melting point lay within 167 to 169 °C.
Turning to `CC(=O)N1CCN(C2=CC(C)(C)Oc3ccc(C#N)cc32)C1=NC#N`, the melting point lay in the range of 200 to 201 °C.
For the compound `CN(C)c1ccc(CCc2nc3sc4c(n3c2CO)CCCCC4)cc1`, the melting point fell in the range of 168 to 170 °C.
In the case of `N#CSc1nccnc1Cl`, the melting point lay within 70 to 71 °C.
In turn, `COc1ccc(C=O)cc1I` had a melting point of 104 to 107 °C.
With `CC1=CCC(NC(=O)NS(=O)(=O)c2ccc(CCNC(=O)N3CCC(C)CC3=O)cc2)CC1` (centres undefined) the figure was 173 to 175 °C.
For the compound `Cc1cc2n[nH]c(=O)n2nc1-c1ccc(C(N)=S)cc1`, the melting point is 325 to 329 °C.
`O=C1NC(=O)C(Cc2ccc(OCCN3CCc4ccccc43)cc2)S1` (centres undefined) returned a melting point of 133 to 136 °C.
The compound `O=[N+]([O-])c1ccc(Oc2c(Cl)cc(S(=O)(=O)NC(=NO)Nc3ccc(Cl)cc3)cc2Cl)cc1` came in with a melting point of 212 °C.
In the case of `O=C1c2ccccc2CCc2ncsc21`, the melting point was in the range of 83 to 86 °C.
Next, `C1=CC2=C(CCCC2)n2c3c(c4cnccc42)CCC=C13`: 134 to 137 °C.
As for `NC(=O)c1ccc(Sc2ccc(Cl)cc2)c(Cl)c1`, the melting point lay within 176 to 177 °C.
`CC(C)n1cnc2c(Nc3ccccn3)nc(F)nc21` showed a melting point of 150 to 152 °C.
`Cc1nnc2n1-c1sc(CC(=O)N3CCCCC3)cc1C(c1ccccc1Cl)=NC2C` (centres undefined) came in with a melting point of 182 to 183 °C.
`CCCCCc1c(-c2ccc3cc(OCc4nnn[nH]4)ccc3c2)n(C)c2ccccc12` returned a melting point of 120 to 122 °C.
For `CCCCOc1cc2c(nc(O)n2Cc2ccccc2)c(N)n1`, the melting point was 205 to 208 °C.
Turning to `FC(F)(F)c1ccc(-c2ccc3ccn(Cc4ccccc4)c3c2)cc1`, the melting point lay within 83 to 85 °C.
The compound `CC(=O)Nc1ccc(OCC2CCC=CO2)cc1` (centres undefined) gave a melting point of 114 to 116 °C.
`CCN(CC)c1cccc(COc2ccc(N)nn2)c1`: the melting point lay in the range of 115 to 118 °C.
In the case of `O=c1oc2ccccc2c2c1-c1ccccc1OC2`, the melting point is 202 °C.
Next, `c1ccc(OCCCCCCN2CCN(c3nccs3)CC2)cc1`: 37 to 39 °C.
For the compound `CCOC(=O)c1cccc(Cn2cnc3ccccc32)c1`, the melting point was in the range of 68 to 70 °C.
`C=CCCCCCCCCNC(=O)NOCc1ccccc1` yielded a melting point of 53 to 55 °C.
For `CCCCc1nn(-c2ccccc2Cl)c(=O)n1Cc1ccc(-c2ccccc2S(=O)(=O)NC(=O)C(F)(F)F)cc1`, the melting point was in the range of 163 to 166 °C.
With `C[C@@H]1c2sccc2CN(C)[C@H]1CCNC(=O)c1ccc(NS(C)(=O)=O)cc1` (relative stereo) the figure was 67 to 74 °C; with `COc1ccc(S(=O)(=O)N2CC3CCC(CC3)C2)c2ccccc12`, 168 to 170 °C; with `C=CCCO[C@@H](Cc1ccc(OCCc2nc(C(C)(C)C)oc2C)c2ccsc12)C(=O)O`, 70 to 71 °C.
`COC(=O)C1=C(C)NC(C)=C(c2nc(C)no2)C1c1cccc(N)c1` (centres undefined) had a melting point of 248 to 249 °C.
In the case of `CCCCCCCCCCC#Cc1ccc2c(c1)c(C=O)cn2S(=O)(=O)c1ccc(C)cc1`, the melting point was in the range of 84 to 86 °C.
